Measurements as given in ChEMBL document CHEMBL1147911, “Synthesis and evaluation of novel benzimidazole derivative [Bz-Im] and its radio/biological studies” (Bioorg Med Chem Lett, 2007).

Key:
Aspergillus niger [1] = assay: Antifungal activity against Aspergillus niger at 20 ug/ml after seven days by agar plate method; type: functional; conditions: 168 h
Aspergillus flavus [2] = assay: Antifungal activity against Aspergillus flavus at 20 ug/ml after seven days by agar plate method; type: functional; conditions: 168 h
Spleen [3] = assay: Biodistribution in Albino mouse spleen at 10 uCi after 1 hr; type: ADME, organism-based; conditions: in vivo
Stomach [4] = assay: Biodistribution in Albino mouse stomach at 10 uCi after 8 hr; type: ADME, organism-based; conditions: in vivo
Intestine [5] = assay: Biodistribution in Albino mouse intestine at 10 uCi after 1 hr; type: ADME, organism-based; conditions: in vivo
Kidney [6] = assay: Biodistribution in Albino mouse kidney at 10 uCi after 2 hr; type: ADME, organism-based; conditions: in vivo
[7] = molecular target: T1, Cholecystokinin receptor type A (Cavia porcellus, UniProt Q63931); assay: Displacement of [125I](BH)CCK8 from Guinea pig CCK1 after 30 mins by receptor binding assay
T1 sequence (Q63931 whole entry): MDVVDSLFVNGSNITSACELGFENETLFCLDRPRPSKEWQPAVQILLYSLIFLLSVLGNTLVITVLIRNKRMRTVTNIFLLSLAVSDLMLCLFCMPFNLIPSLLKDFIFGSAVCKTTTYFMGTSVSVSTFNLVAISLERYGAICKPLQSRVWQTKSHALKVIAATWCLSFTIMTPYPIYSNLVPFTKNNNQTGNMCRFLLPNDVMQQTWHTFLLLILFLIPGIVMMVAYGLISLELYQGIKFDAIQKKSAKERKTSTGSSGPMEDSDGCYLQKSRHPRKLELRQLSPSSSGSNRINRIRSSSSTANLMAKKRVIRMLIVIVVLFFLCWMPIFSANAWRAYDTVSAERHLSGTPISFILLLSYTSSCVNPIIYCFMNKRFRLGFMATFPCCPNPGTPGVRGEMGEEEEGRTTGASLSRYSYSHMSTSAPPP

Liver [8] = assay: Biodistribution in Albino mouse liver at 10 uCi after 2 hr; type: ADME, organism-based; conditions: in vivo
Blood [9] = assay: Biodistribution in Albino mouse blood at 10 uCi after 2 hr; type: ADME, organism-based; conditions: in vivo
Aspergillus flavus [10] = assay: Antifungal activity against Aspergillus flavus at 10 ug/ml after seven days by agar plate method; type: functional; conditions: 168 h
Stomach [11] = assay: Biodistribution in Albino mouse stomach at 10 uCi after 4 hr; type: ADME, organism-based; conditions: in vivo
Kidney [12] = assay: Biodistribution in Albino mouse kidney at 10 uCi after 4 hr; type: ADME, organism-based; conditions: in vivo
[13] = molecular target: T2, Cholecystokinin receptor type A (Rattus norvegicus, UniProt P30551); assay: Displacement of [125I](BH)CCK8 from rat CCK1 after 30 mins by receptor binding assay
T2 sequence (P30551 whole entry): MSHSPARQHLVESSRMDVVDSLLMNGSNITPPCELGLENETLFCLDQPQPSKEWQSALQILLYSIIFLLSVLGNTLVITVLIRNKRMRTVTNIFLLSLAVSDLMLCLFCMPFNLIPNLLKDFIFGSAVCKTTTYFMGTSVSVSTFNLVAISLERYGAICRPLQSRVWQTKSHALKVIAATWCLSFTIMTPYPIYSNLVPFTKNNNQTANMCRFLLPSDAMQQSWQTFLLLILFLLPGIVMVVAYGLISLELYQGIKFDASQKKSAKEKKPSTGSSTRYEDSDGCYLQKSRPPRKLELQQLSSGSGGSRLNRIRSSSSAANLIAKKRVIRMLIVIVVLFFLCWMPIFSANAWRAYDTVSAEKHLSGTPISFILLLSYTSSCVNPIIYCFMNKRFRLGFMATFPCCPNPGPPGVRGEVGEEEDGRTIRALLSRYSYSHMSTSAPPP

Spleen [14] = assay: Biodistribution in Albino mouse spleen at 10 uCi after 4 hr; type: ADME, organism-based; conditions: in vivo
Brain [15] = assay: Biodistribution in Albino mouse brain at 10 uCi after 6 hr; type: ADME, organism-based; conditions: in vivo
Heart [16] = assay: Biodistribution in Albino mouse heart at 10 uCi after 2 hr; type: ADME, organism-based; conditions: in vivo
Kidney [17] = assay: Biodistribution in Albino mouse kidney at 10 uCi after 1 hr; type: ADME, organism-based; conditions: in vivo
Intestine [18] = assay: Biodistribution in Albino mouse intestine at 10 uCi after 6 hr; type: ADME, organism-based; conditions: in vivo
Blood [19] = assay: Biodistribution in Albino mouse blood at 10 uCi after 8 hr; type: ADME, organism-based; conditions: in vivo
Heart [20] = assay: Biodistribution in Albino mouse heart at 10 uCi after 6 hr; type: ADME, organism-based; conditions: in vivo
Aspergillus niger [21] = assay: Antifungal activity against Aspergillus niger at 10 ug/ml after seven days by agar plate method; type: functional; conditions: 168 h
Liver [22] = assay: Biodistribution in Albino mouse liver at 10 uCi after 1 hr; type: ADME, organism-based; conditions: in vivo
Intestine [23] = assay: Biodistribution in Albino mouse intestine at 10 uCi after 2 hr; type: ADME, organism-based; conditions: in vivo
Blood [24] = assay: Biodistribution in Albino mouse blood at 10 uCi after 4 hr; type: ADME, organism-based; conditions: in vivo
Kidney [25] = assay: Biodistribution in Albino mouse kidney at 10 uCi after 8 hr; type: ADME, organism-based; conditions: in vivo
Stomach [26] = assay: Biodistribution in Albino mouse stomach at 10 uCi after 1 hr; type: ADME, organism-based; conditions: in vivo
Liver [27] = assay: Biodistribution in Albino mouse liver at 10 uCi after 4 hr; type: ADME, organism-based; conditions: in vivo
Stomach [28] = assay: Biodistribution in Albino mouse stomach at 10 uCi after 2 hr; type: ADME, organism-based; conditions: in vivo
Stomach [29] = assay: Biodistribution in Albino mouse stomach at 10 uCi after 6 hr; type: ADME, organism-based; conditions: in vivo
Liver [30] = assay: Biodistribution in Albino mouse liver at 10 uCi after 6 hr; type: ADME, organism-based; conditions: in vivo
Spleen [31] = assay: Biodistribution in Albino mouse spleen at 10 uCi after 2 hr; type: ADME, organism-based; conditions: in vivo
Liver [32] = assay: Biodistribution in Albino mouse liver at 10 uCi after 8 hr; type: ADME, organism-based; conditions: in vivo
Kidney [33] = assay: Biodistribution in Albino mouse kidney at 10 uCi after 6 hr; type: ADME, organism-based; conditions: in vivo
Spleen [34] = assay: Biodistribution in Albino mouse spleen at 10 uCi after 6 hr; type: ADME, organism-based; conditions: in vivo
Heart [35] = assay: Biodistribution in Albino mouse heart at 10 uCi after 1 hr; type: ADME, organism-based; conditions: in vivo
Intestine [36] = assay: Biodistribution in Albino mouse intestine at 10 uCi after 8 hr; type: ADME, organism-based; conditions: in vivo
Heart [37] = assay: Biodistribution in Albino mouse heart at 10 uCi after 4 hr; type: ADME, organism-based; conditions: in vivo
Blood [38] = assay: Biodistribution in Albino mouse blood at 10 uCi after 6 hr; type: ADME, organism-based; conditions: in vivo
Intestine [39] = assay: Biodistribution in Albino mouse intestine at 10 uCi after 4 hr; type: ADME, organism-based; conditions: in vivo
Brain [40] = assay: Biodistribution in Albino mouse brain at 10 uCi after 8 hr; type: ADME, organism-based; conditions: in vivo
Blood [41] = assay: Biodistribution in Albino mouse blood at 10 uCi after 1 hr; type: ADME, organism-based; conditions: in vivo
Aspergillus flavus [42] = assay: Antifungal activity against Aspergillus flavus at 50 ug/ml after seven days by agar plate method; type: functional; conditions: 168 h
Spleen [43] = assay: Biodistribution in Albino mouse spleen at 10 uCi after 8 hr; type: ADME, organism-based; conditions: in vivo
Heart [44] = assay: Biodistribution in Albino mouse heart at 10 uCi after 8 hr; type: ADME, organism-based; conditions: in vivo
Brain [45] = assay: Biodistribution in Albino mouse brain at 10 uCi after 2 hr; type: ADME, organism-based; conditions: in vivo
Brain [46] = assay: Biodistribution in Albino mouse brain at 10 uCi after 4 hr; type: ADME, organism-based; conditions: in vivo
Aspergillus niger [47] = assay: Antifungal activity against Aspergillus niger at 50 ug/ml after seven days by agar plate method; type: functional; conditions: 168 h

Compound: C[C@@H]1[C@H](O)[C@@H](C)/C=C/C=C/C=C/C=C/C=C/C=C/C=C/[C@H](O[C@@H]2O[C@H](C)[C@@H](O)[C@H](N)[C@@H]2O)C[C@@H]2O[C@](O)(C[C@@H](O)C[C@@H](O)[C@H](O)CC[C@@H](O)C[C@@H](O)CC(=O)O[C@H]1C)C[C@H](O)[C@H]2C(=O)O [AMPHOTERICIN B]
- inhibition at 20 µg/mL (Aspergillus niger [1]): 79.9%
- inhibition at 20 µg/mL (Aspergillus flavus [2]): 86.4%

Compound: O=C1c2ccccc2C(=O)N1Cc1c(O)ccc2c(/C=C/c3ccccc3)cc3nc4ccccc4n3c12
- Drug uptake (Spleen [3]): 10 % ID/g
- Drug uptake (Stomach [4]): 9.5 % ID/g
- Drug uptake (Intestine [5]): 0.5 % ID/g
- Drug uptake (Kidney [6]): 7 % ID/g
- IC50 [7]: 4320 nM
- Drug uptake (Liver [8]): 25 % ID/g
- Drug uptake (Blood [9]): 2 % ID/g
- inhibition at 10 µg/mL (Aspergillus flavus [10]): 73.3%
- inhibition at 20 µg/mL (Aspergillus niger [1]): 76.8%
- Drug uptake (Stomach [11]): 3 % ID/g
- Drug uptake (Kidney [12]): 2 % ID/g
- IC50 [13]: 942 nM
- Drug uptake (Spleen [14]): 14 % ID/g
- Drug uptake (Brain [15]): 1 % ID/g
- Drug uptake (Heart [16]): 0.4 % ID/g
- Drug uptake (Kidney [17]): 5 % ID/g
- Drug uptake (Intestine [18]): 3 % ID/g
- Drug uptake (Blood [19]): 0.5 % ID/g
- Drug uptake (Heart [20]): 0.3 % ID/g
- inhibition at 10 µg/mL (Aspergillus niger [21]): 60.3%
- Drug uptake (Liver [22]): 18 % ID/g
- Drug uptake (Intestine [23]): 0.5 % ID/g
- Drug uptake (Blood [24]): 2 % ID/g
- Drug uptake (Kidney [25]): 5 % ID/g
- inhibition at 20 µg/mL (Aspergillus flavus [2]): 76.7%
- Drug uptake (Stomach [26]): 1 % ID/g
- Drug uptake (Liver [27]): 18 % ID/g
- Drug uptake (Stomach [28]): 2.5 % ID/g
- Drug uptake (Stomach [29]): 7 % ID/g
- Drug uptake (Liver [30]): 15 % ID/g
- Drug uptake (Spleen [31]): 15 % ID/g
- Drug uptake (Liver [32]): 15 % ID/g
- Drug uptake (Kidney [33]): 5 % ID/g
- Drug uptake (Spleen [34]): 12 % ID/g
- Drug uptake (Heart [35]): 1 % ID/g
- Drug uptake (Intestine [36]): 3 % ID/g
- Drug uptake (Heart [37]): 0.3 % ID/g
- Drug uptake (Blood [38]): 0.5 % ID/g
- Drug uptake (Intestine [39]): 0.2 % ID/g
- Drug uptake (Brain [40]): 1 % ID/g
- Drug uptake (Blood [41]): 3 % ID/g
- inhibition at 50 µg/mL (Aspergillus flavus [42]): 88.3%
- Drug uptake (Spleen [43]): 11 % ID/g
- Drug uptake (Heart [44]): 0.2 % ID/g
- Drug uptake (Brain [45]): 0.2 % ID/g
- Drug uptake (Brain [46]): 0.45 % ID/g
- inhibition at 50 µg/mL (Aspergillus niger [47]): 84.6%

Compound: O=C1c2ccccc2C(=O)N1Cc1c(O)ccc2c(/C=C/c3ccc(O)cc3)cc3nc4ccccc4n3c12
- Drug uptake (Spleen [3]): 10 % ID/g
- Drug uptake (Stomach [4]): 7.5 % ID/g
- Drug uptake (Intestine [5]): 0.5 % ID/g
- Drug uptake (Kidney [6]): 6 % ID/g
- IC50 [7]: 2940 nM
- Drug uptake (Liver [8]): 23 % ID/g
- Drug uptake (Blood [9]): 2 % ID/g
- inhibition at 10 µg/mL (Aspergillus flavus [10]): 60.8%
- inhibition at 20 µg/mL (Aspergillus niger [1]): 83.2%
- Drug uptake (Stomach [11]): 3 % ID/g
- Drug uptake (Kidney [12]): 3 % ID/g
- IC50 [13]: 665 nM
- Drug uptake (Spleen [14]): 17 % ID/g
- Drug uptake (Brain [15]): 1 % ID/g
- Drug uptake (Heart [16]): 0.5 % ID/g
- Drug uptake (Kidney [17]): 5.5 % ID/g
- Drug uptake (Intestine [18]): 1 % ID/g
- Drug uptake (Blood [19]): 2.5 % ID/g
- Drug uptake (Heart [20]): 0.1 % ID/g
- inhibition at 10 µg/mL (Aspergillus niger [21]): 60.7%
- Drug uptake (Liver [22]): 16 % ID/g
- Drug uptake (Intestine [23]): 0.5 % ID/g
- Drug uptake (Blood [24]): 2 % ID/g
- Drug uptake (Kidney [25]): 4.5 % ID/g
- inhibition at 20 µg/mL (Aspergillus flavus [2]): 73.4%
- Drug uptake (Stomach [26]): 1 % ID/g
- Drug uptake (Liver [27]): 14 % ID/g
- Drug uptake (Stomach [28]): 2 % ID/g
- Drug uptake (Stomach [29]): 7 % ID/g
- Drug uptake (Liver [30]): 15 % ID/g
- Drug uptake (Spleen [31]): 15 % ID/g
- Drug uptake (Liver [32]): 15 % ID/g
- Drug uptake (Kidney [33]): 4.5 % ID/g
- Drug uptake (Spleen [34]): 16 % ID/g
- Drug uptake (Heart [35]): 0.8 % ID/g
- Drug uptake (Intestine [36]): 1 % ID/g
- Drug uptake (Heart [37]): 0.2 % ID/g
- Drug uptake (Blood [38]): 2.5 % ID/g
- Drug uptake (Intestine [39]): 0.2 % ID/g
- Drug uptake (Brain [40]): 1 % ID/g
- Drug uptake (Blood [41]): 2.5 % ID/g
- inhibition at 50 µg/mL (Aspergillus flavus [42]): 92.1%
- Drug uptake (Spleen [43]): 16 % ID/g
- Drug uptake (Heart [44]): 0.2 % ID/g
- Drug uptake (Brain [45]): 0.2 % ID/g
- Drug uptake (Brain [46]): 0.45 % ID/g
- inhibition at 50 µg/mL (Aspergillus niger [47]): 83.6%

Compound: O=C1c2ccccc2C(=O)N1Cc1c(O)ccc2c(/C=C/c3ccc(-c4ccccc4)cc3)cc3nc4ccccc4n3c12
- IC50 [7]: 16400 nM
- IC50 [13]: 197 nM
